Source: ChEMBL document CHEMBL3734705, “Synthesis and in vitro cytotoxicity of novel C-12 substituted-14-deoxy-andrographolide derivatives as potent anti-cancer agents” (2015)

Columns and labels:
Type in all cases: functional
SK-MEL-2 [1] = test: Cytotoxicity against human SK-MEL-2 cells assessed as growth level at 10 uM after 48 hrs by SRB assay
SK-MEL-2 [2] = test: Cytotoxicity against human SK-MEL-2 cells assessed as growth inhibition at 10 uM after 48 hrs by SRB assay; conditions: SK-MEL-2, 48 h, read-out: GI
K562 = test: Cytotoxicity against human K562 cells after 48 hrs by SRB assay; conditions: K562, 48 h
A549 = test: Cytotoxicity against human A549 cells after 48 hrs by SRB assay; conditions: A549, 48 h
[3] = Cytotoxicity against human HOP62 cells after 48 hrs by SRB assay; conditions: HOP-62, 48 h
[4] = Cytotoxicity against human HOP92 cells after 48 hrs by SRB assay; conditions: HOP-92, 48 h
NCI-H226 = test: Cytotoxicity against human NCI-H226 cells after 48 hrs by SRB assay; conditions: NCI-H226, 48 h
NCI-H23 = test: Cytotoxicity against human NCI-H23 cells after 48 hrs by SRB assay; conditions: NCI-H23, 48 h
NCI-H322M = test: Cytotoxicity against human NCI-H322M cells after 48 hrs by SRB assay
NCI-H460 = test: Cytotoxicity against human NCI-H460 cells after 48 hrs by SRB assay; conditions: NCI-H460, 48 h
NCI-H522 = test: Cytotoxicity against human NCI-H522 cells after 48 hrs by SRB assay; conditions: NCI-H522, 48 h
[5] = Cytotoxicity against human HCC2998 cells after 48 hrs by SRB assay; conditions: HCC 2998, 48 h
[6] = Cytotoxicity against human HCT116 cells after 48 hrs by SRB assay; conditions: HCT-116, 48 h
[7] = Cytotoxicity against human HCT15 cells after 48 hrs by SRB assay; conditions: HCT-15, 48 h
HT-29 = test: Cytotoxicity against human HT-29 cells after 48 hrs by SRB assay; conditions: HT-29, 48 h
KM12 = test: Cytotoxicity against human KM12 cells after 48 hrs by SRB assay; conditions: KM12, 48 h
[8] = Cytotoxicity against human SF268 cells after 48 hrs by SRB assay; conditions: SF-268, 48 h
[9] = Cytotoxicity against human SNB19 cells after 48 hrs by SRB assay; conditions: SNB-19, 48 h
[10] = Cytotoxicity against human LOXIMVI cells after 48 hrs by SRB assay; conditions: LOX IMVI
MDA-MB-435 = test: Cytotoxicity against human MDA-MB-435 cells after 48 hrs by SRB assay; conditions: MDA-MB-435, 48 h
SK-MEL-2 [11] = test: Cytotoxicity against human SK-MEL-2 cells after 48 hrs by SRB assay; conditions: SK-MEL-2, 48 h
SK-MEL-28 = test: Cytotoxicity against human SK-MEL-28 cells after 48 hrs by SRB assay; conditions: SK-MEL-28, 48 h
SK-MEL-5 = test: Cytotoxicity against human SK-MEL-5 cells after 48 hrs by SRB assay; conditions: SK-MEL-5, 48 h
[12] = Cytotoxicity against human IGROV1 cells after 48 hrs by SRB assay; conditions: IGROV-1, 48 h
[13] = Cytotoxicity against human OVCAR4 cells after 48 hrs by SRB assay; conditions: OVCAR-4, 48 h
[14] = Cytotoxicity against human OVCAR5 cells after 48 hrs by SRB assay; conditions: OVCAR-5, 48 h
[15] = Cytotoxicity against human OVCAR8 cells after 48 hrs by SRB assay; conditions: OVCAR-8, 48 h
[16] = Cytotoxicity against human NCI-ADR-RES cells after 48 hrs by SRB assay
ACHN = test: Cytotoxicity against human ACHN cells after 48 hrs by SRB assay
[17] = Cytotoxicity against human Caki1 cells after 48 hrs by SRB assay; conditions: CAKI-1, 48 h
[18] = Cytotoxicity against human RXF393 cells after 48 hrs by SRB assay; conditions: RXF 393, 48 h
[19] = Cytotoxicity against human TK10 cells after 48 hrs by SRB assay; conditions: TK-10, 48 h
[20] = Cytotoxicity against human UO31 cells after 48 hrs by SRB assay; conditions: UO-31, 48 h
MCF7 = test: Cytotoxicity against human MCF7 cells after 48 hrs by SRB assay; conditions: MCF7, 48 h
T47D = test: Cytotoxicity against human T47D cells after 48 hrs by SRB assay
[21] = read-out: LC50 (the source's name)

C=C1CC[C@@H]2[C@](C)(COC(C)=O)[C@H](OC(C)=O)CC[C@@]2(C)[C@@H]1CC(NCc1cccc(Cl)c1)C1=CCOC1=O (mixture of isomers)
Activity (SK-MEL-2 [1]): 68.04% | inhibition of growth at 10 µM (SK-MEL-2 [2]): 32%

C=C1CC[C@@H]2[C@](C)(COC(C)=O)[C@H](OC(C)=O)CC[C@@]2(C)[C@@H]1CC(NCc1ccc(F)cc1)C1=CCOC1=O (mixture of isomers)
Activity (SK-MEL-2 [1]): 73.2% | inhibition of growth at 10 µM (SK-MEL-2 [2]): 26.8%

C=C1CC[C@@H]2[C@](C)(COC(C)=O)[C@H](OC(C)=O)CC[C@@]2(C)[C@@H]1CC(Sc1ccccc1)C1=CCOC1=O (mixture of isomers)
Activity (SK-MEL-2 [1]): -1.66% | GI50 (K562): 0.69 µM | LC50 (50% lethal concentration) (K562): 45.7 µM | TGI (K562): 3.69 µM | GI50 (A549): 2.73 µM | LC50 (A549): > 100 µM | TGI (A549): 7.77 µM | GI50 [3]: 2.89 µM | LC50 [3]: 14.7 µM | TGI [3]: 5.53 µM | GI50 [4]: 2.71 µM | LC50 [4]: > 100 µM | TGI [4]: 8.71 µM | GI50 (NCI-H226): 2.3 µM | LC50 (NCI-H226): 39.4 µM | TGI (NCI-H226): 5.98 µM | GI50 (NCI-H23): 1.78 µM | LC50 (NCI-H23): 7.57 µM | TGI (NCI-H23): 3.67 µM | GI50 (NCI-H322M): 2.93 µM | LC50 (NCI-H322M): > 100 µM | TGI (NCI-H322M): 10.4 µM | GI50 (NCI-H460): 2.24 µM | TGI (NCI-H460): 6.03 µM | CC50 (NCI-H460; [21]): > 100 µM | GI50 (NCI-H522): 1.35 µM | LC50 (NCI-H522): 6.57 µM | TGI (NCI-H522): 2.98 µM | GI50 [5]: 2.1 µM | LC50 [5]: 7.89 µM | TGI [5]: 4.08 µM | GI50 [6]: 0.85 µM | LC50 (concentration killing 50% of cells) [6]: 5.03 µM | TGI [6]: 2.18 µM | GI50 [7]: 0.87 µM | LC50 [7]: 6.98 µM | TGI [7]: 2.59 µM | GI50 (HT-29): 1.77 µM | LC50 (HT-29): 8.03 µM | TGI (HT-29): 3.77 µM | GI50 (KM12): 1.4 µM | LC50 (KM12): 6.25 µM | TGI (KM12): 2.96 µM | GI50 [8]: 1.71 µM | LC50 [8]: 7.39 µM | TGI [8]: 3.55 µM | GI50 [9]: 1.78 µM | LC50 (concentration killing 50% of cells) [9]: 7.97 µM | TGI [9]: 3.77 µM | GI50 [10]: 0.29 µM | LC50 [10]: 3.97 µM | TGI [10]: 1.19 µM | GI50 (MDA-MB-435): 1.41 µM | LC50 (50% lethal concentration) (MDA-MB-435): 9.09 µM | TGI (MDA-MB-435): 3.58 µM | GI50 (SK-MEL-2 [11]): 2.25 µM | LC50 (concentration causing 50% net cell kill) (SK-MEL-2 [11]): 9.36 µM | TGI (SK-MEL-2 [11]): 4.59 µM | GI50 (SK-MEL-28): 1.62 µM | LC50 (lethal concentration 50%) (SK-MEL-28): 6.68 µM | TGI (SK-MEL-28): 3.29 µM | GI50 (SK-MEL-5): 1.42 µM | LC50 (concentration killing 50% of cells) (SK-MEL-5): 5.6 µM | TGI (SK-MEL-5): 2.82 µM | GI50 [12]: 1.87 µM | TGI [12]: 4.28 µM | GI50 [13]: 1.36 µM | TGI [13]: 3.11 µM | CC50 [13, 21]: 7.12 µM | GI50 [14]: 2.46 µM | LC50 (concentration causing 50% net cell kill) [14]: 8.89 µM | TGI [14]: 4.67 µM | GI50 [15]: 1.46 µM | LC50 [15]: 70 µM | TGI [15]: 4.7 µM | GI50 [16]: 2.1 µM | LC50 [16]: > 100 µM | TGI [16]: 11 µM | GI50 (ACHN): 1.34 µM | LC50 (ACHN): 6.01 µM | TGI (ACHN): 2.84 µM | GI50 [17]: 2.77 µM | LC50 [17]: > 100 µM | TGI [17]: 11.5 µM | GI50 [18]: 1.62 µM | LC50 (concentration causing 50% net cell kill) [18]: 6.01 µM | TGI [18]: 3.12 µM | GI50 [19]: 2.83 µM | LC50 [19]: 13.4 µM | TGI [19]: 5.54 µM | GI50 [20]: 1.2 µM | LC50 (concentration killing 50% of cells) [20]: 5.33 µM | TGI [20]: 2.53 µM | GI50 (MCF7): 0.53 µM | LC50 (50% lethal concentration) (MCF7): 7.27 µM | TGI (MCF7): 2.35 µM | GI50 (T47D): 2.01 µM | LC50 (concentration killing 50% of cells) (T47D): > 100 µM | TGI (T47D): 8.32 µM

C=C1CC[C@@H]2[C@](C)(COC(C)=O)[C@H](OC(C)=O)CC[C@@]2(C)[C@@H]1CC(NC1CCCC1)C1=CCOC1=O (stereo not given in full)
Activity (SK-MEL-2 [1]): 85.11% | inhibition of growth at 10 µM (SK-MEL-2 [2]): 14.9%
